Test results: paper PMC11714206, “Massively Parallel Screening of Toll/Interleukin‐1 Receptor (TIR)‐Derived Peptides Reveals Multiple Toll‐Like Receptors (TLRs)‐Targeting Immunomodulatory Peptides” (Advanced Science, 2024)
“And” between values parts separate entries of the source, which are not always exact repeats. Identical values can stand only once. Where no end group is shown, it is not given here.

Key:
[1] = test system: human conjunctival epithelial cells and rabbit cornea; conditions: cited from earlier work
[2] = Serum stability analysis; format: in vitro ADME; conditions: human serum (Sigma H4522), 1 mM peptide in water mixed 1:1 (v/v) with serum, 37 °C, SDS‐PAGE, Coomassie band intensity (ImageJ); for half-life at 0.5 mM: 0–72 h
Method: Figure 6 Molecular characterization of TDIPs. (a) Co‐immunoprecipitation of TIR domains and TDIPs. Lysates of HEK293T cells expressing FLAG‐tagged TIR domains were incubated with the indicated TDIPs. Peptides were blotted with an antibody against the penetratin sequence. Created with BioRender.com. (b) Fluorescence polarization binding assay of the Cy5‐labeled TDIP1 against TIR domains of Myd88, TRAM, and MAL. Error bars represent ± SD (n = 3). (c) Human serum stability (half‐life) of the TDIPs was measured. The percentage of the remaining peptide was quantified up to 72 h. (d) The secondary structure of the selected TDIPs was determined by circular dichroism. […] (e) TDIP1 and its truncates were compared for inhibition of TLR4 signaling by using HEK‐Blue^TM hTLR4 cells. Data are presented as mean ± SD. ^****p < 0.0001. All significance is versus the LPS‐treated CP group. n.s., not significant.
The first step of the serum stability analysis was performed as previously described^[ [60] ^] with a minor modification. Human serum (Sigma‐Aldrich, H4522) was thawed on ice and centrifuged at 18 000 × g for 10 min at 4 °C to remove lipids. The supernatant was incubated at 37 °C for 15 min to activate the proteins. Each peptide was prepared at a concentration of 1 mM in ultrapure water and mixed with human serum in a 1:1 (v/v) ratio. The mixed solutions were incubated at 37 °C for various periods (0, 1, 3, 6, 12, 24, 48, and 72 h). A mixture of ultrapure water and human serum was used as the blank. A total of 3 µg of the peptide was loaded on an SDS–polyacrylamide gel and stained with InstantBlue Coomassie Protein Stain (Abcam). The intensity of the remaining peptide bands was quantified using ImageJ and plotted.

[3] = target: T1, MAL^TIR (Homo sapiens, UniProt P58753); test: T‐Surf phage library (P8 and P3) selection against MAL^TIR, four rounds, NGS read counts; format: binding; conditions: for Population: 4th round of selection against MAL TIR, share of NGS reads; for P8_MAL Rank (after) / P8_MAL Rank (before): P8 library; for P3_MAL Rank (after) / P3_MAL Rank (before): P3 library
T1 construct: MAL (residues 79–221); 6xHis; made in house; host or cells: E. coli BL21 (DE3)
In short: (§1)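 P8 and P3 T‐Surf libraries panned against plate-coated TIR domains (5 µg mL^−1), 1 h binding at RT, acid elution and TG1/helper-phage amplification per round. After four rounds, pools were PCR-barcoded and sequenced (NovaSeq, 100 bp paired-end, Phred ≥30); peptides ranked by read counts.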

[4] = target: T2, MyD88^TIR (Homo sapiens, UniProt Q99836); test: T‐Surf phage library (P8 and P3) selection against MyD88^TIR, four rounds, NGS read counts; format: binding; conditions: for Population: 4th round of selection against MyD88 TIR, share of NGS reads; for P3_MyD88 Rank (after) / P3_MyD88 Rank (before): P3 library
T2 construct: MyD88 (residues 148–296); 6xHis; made in house; host or cells: E. coli BL21 (DE3)
In short: as §1

[5] = P8_MAL: rank by count after grouping
[6] = P8_MAL: rank by count before grouping
[7] = P3_MyD88 pool: P3 T-Surf phage library
[8] = selection against MAL TIR, rank by count after grouping
[9] = selection against MAL TIR, rank by count before grouping
[10] = P3_MAL: rank by count after grouping
[11] = P3_MAL: rank by count before grouping
[12] = P3_MyD88: rank by count after grouping
[13] = P3_MyD88: rank by count before grouping
[14] = 4R selection against MAL, rank after grouping
[15] = 4R selection against MAL, rank before grouping
[16] = selection against MyD88, rank after grouping
[17] = selection against MyD88, rank before grouping
[18] = P3_MAL pool: P3 T-Surf phage library
[19] = selection against MyD88 TIR, rank by count after grouping
[20] = selection against MyD88 TIR, rank by count before grouping

T2 sequence (Q99836 148-296): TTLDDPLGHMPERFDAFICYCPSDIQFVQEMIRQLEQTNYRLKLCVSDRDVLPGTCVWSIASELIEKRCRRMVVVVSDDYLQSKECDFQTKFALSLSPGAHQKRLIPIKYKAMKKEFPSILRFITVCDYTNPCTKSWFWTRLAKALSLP
T1 sequence (P58753 79-221): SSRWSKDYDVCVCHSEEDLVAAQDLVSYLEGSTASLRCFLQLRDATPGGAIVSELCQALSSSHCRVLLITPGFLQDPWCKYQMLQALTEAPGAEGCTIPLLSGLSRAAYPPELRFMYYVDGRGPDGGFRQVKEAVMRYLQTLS

Substance: penetratin
- cellular and tissue toxicity compared with other CPPs such as TAT and polyarginine [1]: lower cellular and tissue toxicity
- cellular uptake [1]: excellent cellular uptake

Substance: RQIKIWFQNRRMKWKKTFLGHLYNALVQAGIH [TDIP5]
- half-life at 0.5 mM [2]: ~360 min

Substance: WFYERLVSLILRDTKV
- Population ([3]; P8_MAL pool: P8 T-Surf phage library): 0.00432% and 0.00402% and 0.00371% and 0.0034% and 0.00309% and 0.00278%
- P8_MyD88 Rank (after) ([4]; P8 library, 4R selection against MyD88, rank after grouping): 615
- P8_MyD88 Rank (before) ([4]; P8 library, 4R selection against MyD88, rank before grouping): 1356

Substance: RQIKIWFQNRRMKWKKLFFWESLKQLLRSDGR [TDIP6]
- remaining peptide after 48 h of incubation in human serum ([2]; 48 h): up to 50%

Substance: RGFLSHLRHHLQAKDH
- Rank (after) [3, 5]: 107
- Rank (before) [3, 6]: 654
- Rank (after) ([4]; P8_MyD88: rank by NGS read count after grouping): 907
- Rank (before) ([4]; P8_MyD88: rank by NGS read count before grouping): 3395

Substance: YTALTNSGFHTFRDND
- Rank (after) [3, 5]: 105
- Rank (before) [3, 6]: 584
- Population [4, 7]: 0.00291%

Substance: ELDFSHFWLFDGQAGGEA
- P8_MAL Rank (after) [3, 8]: 200
- P8_MAL Rank (before) [3, 9]: 2049
- Population ([4]; P8_MyD88 pool: P8 T-Surf phage library): 0.00771%

Substance: RLLKWKEALHQFHSW
- Rank (after) [3, 10]: 136
- Rank (before) [3, 11]: 436
- Rank (after) [4, 12]: 130
- Rank (before) [4, 13]: 708

Substance: YLKWKEALHQFHSWV
- P3_MAL Rank (after) [3, 14]: 662
- P3_MAL Rank (before) [3, 15]: 1520
- P3_MyD88 Rank (after) ([4]; 4R selection against MyD88, rank after grouping): 601
- P3_MyD88 Rank (before) ([4]; 4R selection against MyD88, rank before grouping): 1609

Substance: LKVESWRQSREKAGKL
- P3_MAL Rank (after) ([3]; selection against MAL, rank after grouping): 557
- P3_MAL Rank (before) ([3]; selection against MAL, rank before grouping): 2266
- P3_MyD88 Rank (after) [4, 16]: 512
- P3_MyD88 Rank (before) [4, 17]: 2480

Substance: SIFREGLWRLLELSKK
- Population [3, 18]: 0.0259%
- Population [4, 7]: 0.00291%

Substance: LKWGDPYFWSKLRFA
- Rank (after) [3, 10]: 474
- Rank (before) [3, 11]: 2222
- P3_MyD88 Rank (after) [4, 19]: 207
- P3_MyD88 Rank (before) [4, 20]: 1061

Substance: KMQKWKDALYEAANLSGW
- Population [3, 18]: 0.0124%
- Rank (after) [3, 10]: 105
- Rank (before) [3, 11]: 109
- Population [4, 7]: 0.00437%

Substance: KEVEGWRDALTAAANLSGW
- Population [3, 18]: 0.00376%
- Rank (after) [3, 10]: 112
- Rank (before) [3, 11]: 177
- Population [4, 7]: 0.00437%

Substance: NQWRNALYEAANLS
- P3_MAL Rank (after) [3, 8]: 198
- P3_MAL Rank (before) [3, 9]: 1055
- Rank (after) [4, 12]: 184
- Rank (before) [4, 13]: 1269

Substance: ARLPAICIVIWCSVA
- Rank (after) [3, 10]: 106
- Rank (before) [3, 11]: 170
- Rank (after) [4, 12]: 140
- Rank (before) [4, 13]: 935

Substance: SSFREGPWRLLELSKK
- Population [3, 18]: 0.00338%
- Population [4, 7]: 0.00466%

Substance: YAFTGHLHRYLVQHGV
- Population [3, 18]: 0.0109%
- Population [4, 7]: 0.00378%

Substance: YAFTGHLQRYLVHRGV
- P3_MAL Rank (after) [3, 8]: 251
- P3_MAL Rank (before) [3, 9]: 1443
- Rank (after) [4, 12]: 120
- Rank (before) [4, 13]: 1532

Substance: SSFHEGLWRLLELSKK
- Population [3, 18]: 0.00413%
- Population [4, 7]: 0.00466%

Substance: SFFGINCVIICQRRS
- Rank (after) [3, 10]: 126
- Rank (before) [3, 11]: 360
- P3_MyD88 Rank (after) [4, 16]: 545
- P3_MyD88 Rank (before) [4, 17]: 2934

Substance: SSFREGLWHLLELSKK
- Population [3, 18]: 0.00413%
- Population [4, 7]: 0.00553%

Substance: RQIKIWFQNRRMKWKKLVAHEISKKMKIFATI [TDIP20]
- half-life at 0.5 mM [2]: < 60 min

Substance: NQWRNALTAAANLNGW
- Population [3, 18]: 0.00564%
- Population [4, 7]: 0.00408%

Substance: DIQRSRFKDDADLVGQ
- Rank (after) [3, 10]: 130
- Rank (before) [3, 11]: 1958
- Rank (after) [4, 12]: 391
- Rank (before) [4, 13]: 2068

Substance: YASSSWALDELLRILY
- P8_MAL Rank (after) [3, 8]: 227
- P8_MAL Rank (before) [3, 9]: 799
- P3_MyD88 Rank (after) [4, 16]: 502
- P3_MyD88 Rank (before) [4, 17]: 1556

Substance: LQNQWKLALTKVANLSGW
- Rank (after) [3, 10]: 116
- Rank (before) [3, 11]: 213
- Rank (after) [4, 12]: 98
- Rank (before) [4, 13]: 680

Substance: NGHESEIIKEIWIPL
- Rank (after) [3, 10]: 429
- Rank (before) [3, 11]: 3263
- Rank (after) [4, 12]: 407
- Rank (before) [4, 13]: 3358

Substance: KEVEGWRDALTKVANLV
- Rank (after) [3, 10]: 134
- Rank (before) [3, 11]: 489
- Population [4, 7]: 0.00349%

Substance: LKWAIRIFGANCVMR
- P3_MAL Rank (after) [3, 8]: 274
- P3_MAL Rank (before) [3, 9]: 844
- Rank (after) [4, 12]: 154
- Rank (before) [4, 13]: 1073

Substance: LKVESWRDALTKVASL
- Rank (after) [3, 10]: 142
- Rank (before) [3, 11]: 847
- Population [4, 7]: 0.0032%

Substance: LKVESWRQALEKRAN
- Rank (after) [3, 10]: 122
- Rank (before) [3, 11]: 331
- Rank (after) [4, 12]: 99
- Rank (before) [4, 13]: 383

Substance: KEVEGWRDALTKWRA
- P3_MAL Rank (after) [3, 14]: 652
- P3_MAL Rank (before) [3, 15]: 3567
- P3_MyD88 Rank (after) [4, 19]: 250
- P3_MyD88 Rank (before) [4, 20]: 1304
